Measured values as given in US8822464B2, “N-aryl-piperazine derivatives and their use as positive allosteric modulators of mGluR5 receptors” (Boehringer Ingelheim International GmbH, priority 2011, dated 2014).

target: T1, human recombinant mGluR5 (Homo sapiens, UniProt P41594); assay: positive modulation of mGluR5, calcium based FLIPR assay in HEK 293 cells; conditions: HEK 293 cell line expressing human recombinant mGluR5; peak height of Ca release fluorescence signal after glutamate at approximately 5% basal stimulation; nonlinear regression
T1 construct: expressed in transfected cells; host or cells: HEK 293 cell line; cultured with tetracycline, hygromycin and geneticin; tetracycline withdrawn 3-7 days before the assay
T1 sequence (P41594 21-1212): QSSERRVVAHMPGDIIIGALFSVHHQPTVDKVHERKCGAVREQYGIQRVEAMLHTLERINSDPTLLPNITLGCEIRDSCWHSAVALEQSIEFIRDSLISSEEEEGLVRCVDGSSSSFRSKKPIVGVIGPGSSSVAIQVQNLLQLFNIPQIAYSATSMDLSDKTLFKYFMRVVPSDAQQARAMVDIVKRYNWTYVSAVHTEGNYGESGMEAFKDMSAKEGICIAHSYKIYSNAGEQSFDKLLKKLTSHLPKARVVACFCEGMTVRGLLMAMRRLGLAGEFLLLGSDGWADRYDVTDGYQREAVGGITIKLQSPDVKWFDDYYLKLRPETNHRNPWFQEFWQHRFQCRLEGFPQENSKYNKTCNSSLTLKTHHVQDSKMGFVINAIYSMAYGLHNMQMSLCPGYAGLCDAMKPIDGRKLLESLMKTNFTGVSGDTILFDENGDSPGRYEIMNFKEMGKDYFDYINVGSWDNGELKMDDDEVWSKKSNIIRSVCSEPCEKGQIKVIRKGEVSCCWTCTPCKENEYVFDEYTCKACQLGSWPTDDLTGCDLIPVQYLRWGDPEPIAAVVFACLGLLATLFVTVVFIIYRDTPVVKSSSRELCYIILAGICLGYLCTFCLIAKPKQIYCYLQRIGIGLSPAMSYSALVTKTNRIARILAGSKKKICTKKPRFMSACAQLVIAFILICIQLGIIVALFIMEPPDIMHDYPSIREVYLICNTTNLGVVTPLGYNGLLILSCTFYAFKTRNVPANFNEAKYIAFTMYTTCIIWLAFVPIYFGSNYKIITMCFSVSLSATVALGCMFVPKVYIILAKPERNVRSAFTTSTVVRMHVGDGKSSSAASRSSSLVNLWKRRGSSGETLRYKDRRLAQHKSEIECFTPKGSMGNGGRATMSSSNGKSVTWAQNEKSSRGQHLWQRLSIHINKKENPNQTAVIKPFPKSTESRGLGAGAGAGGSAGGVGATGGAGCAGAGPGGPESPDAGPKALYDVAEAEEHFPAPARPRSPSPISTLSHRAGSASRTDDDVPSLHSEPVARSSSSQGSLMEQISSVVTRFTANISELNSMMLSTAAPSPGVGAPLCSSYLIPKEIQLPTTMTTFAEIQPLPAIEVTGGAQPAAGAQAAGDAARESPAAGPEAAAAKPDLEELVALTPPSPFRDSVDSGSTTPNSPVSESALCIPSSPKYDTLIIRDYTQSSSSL
Procedure: The positive modulation of mGluR5 is measured in a HEK 293 cell line expressing human recombinant mGluR5 and is detected with calcium based FLIPR assay. The cells are cultured with DMEM supplemented with 10% FCS, 2 μg/mL tetracycline, 100 μg/mL hygromycin and 500 μg/mL gneticin. The cell culture media is exchanged for tetracycline-free cell culture media 3-7 days before the assay. One day before the assay the cell culture medium is exchanged to DMEM without glutamine and phenol red and supplemented with 10% FCS, 100 μg/mL hygromycin and 500 μg/mL geneticin. On the assay day, the medium of the subconfluent cultures is removed and the cells are detached by addition of 2.5 ml EDTA(0.02%) per 175 cm2 culture flask for 1 minute. The cells are resuspend in Ringer solution (140 mM NaCl, 5 mM KCl, 2.5 mM CaCl2, 1.5 mM MgCl2, 5 mM Glucose, 10 mM Hepes; adjusted to pH 7.4 with NaOH), pooled and Ringer solution added to adjust the volume to 50 mL. The cell suspension is centrifuged for 5 min at 1500 U/min (425 g). The supernatant is removed and the cells washed a second time with 50 ml fresh Ringer solution and centrifuged again as before. The supernatant is again removed and the pellet resuspended in Ringer solution to 1,000,000 cells/ml (1×10^6 cells/mL). The cells are plated onto BD BioCoat Poly-D-Lysine 384 well plates (20.000 cells/well; 20 μl/well). The lid covered plates are then incubated until use at 37° C./10% CO2. For dye loading, 20 μl of Calcium-4 assay kit solution (prepared according to the manufacturer's description in Ringer solution) are added to the cells and the plates are incubated for 80 min 37° C. and then 10 min at room temperature.
Controls, Compound Dilution and Assay Execution:
Each assay plate contained wells with “high” and “low” controls:
Low controls 1% DMSO/ringer solution+basal glutamate activation (defined as 100% CTL).
High controls 10 μM CDPPB+basal glutamate activation (defined as 200% CTL).
Test compounds are dissolved and diluted in DMSO to 100-fold the desired concentrations. In a second step, the compounds are diluted in Ringer solution such that the compounds are 4-fold more concentrated than the desired final assay concentration. The final DMSO concentration was 1%.
20 μl of each compound solution are then transferred to the assay plate and the Ca2+ kinetic is measured to determine any intrinsic compound activity. After 5 min incubation in the FLIPR device, the second stimulation with 20 μl of glutamate in Ringer solution (glutamate concentration adjusted to approximately 5% basal stimulation of the maximal possible glutamate effect) is added and the kinetic Ca2+ response of the wells was measured for the modulation effect.
The peak height of the Ca release related fluorescence signal (9-66) is used for the EC50. The EC50 of the modulation is calculated over a nonlinear regression with GraphPad Prism (Table 1).

SMILES	EC50 [nM]
Cc1cc(-c2cc(-c3ccccc3)n(CC(=O)N3CCN(c4ncccn4)CC3)n2)ccc1F [Example 7.01.01, 2-(3-(4-Fluoro-3-methyl-phenyl)-5-phenyl-pyrazol-1-yl)-1-(4-(2-pyrimidinyl)-1-piperazinyl)-ethanon]	6
Cc1cc(-c2cc(-c3ccccc3)n(CC(=O)N3CCN(c4cccnn4)CC3)n2)ccc1F [Example 7.01.02]	9
COc1cc(N2CCN(C(=O)Cn3nc(-c4ccc(F)c(C)c4)cc3-c3ccccc3)CC2)ncn1 [Example 7.01.03]	11
Cc1cc(-c2cc(-c3ccccc3)n(CC(=O)N3CCN(c4ccccn4)CC3)n2)ccc1F [Example 7.01.04]	11
Cc1cc(-c2cc(-c3ccccc3)nn2CC(=O)N2CCN(c3ncccn3)CC2)ccc1F [Example 7.01.05]	44
Cc1cc(-c2cc(-c3ccccc3)nn2CC(=O)N2CCN(c3ccccn3)CC2)ccc1F [Example 7.01.06]	99
O=C(Cn1nc(-c2ccccc2)cc1-c1ccccc1)N1CCN(c2nccc3ccccc23)CC1 [Example 7.01.07]	621
O=C(Cn1nc(-c2ccccc2)cc1-c1ccccc1)N1CCN(c2ccncn2)CC1 [Example 7.01.08]	349
O=C(Cn1nc(-c2ccccc2)cc1-c1ccccc1)N1CCN(c2ccc(Cl)cn2)CC1 [Example 7.01.09]	373
N#Cc1ccccc1N1CCN(C(=O)Cn2nc(-c3ccccc3)cc2-c2ccccc2)CC1 [Example 7.01.10]	750
CCOc1ccccc1N1CCN(C(=O)Cn2nc(-c3ccccc3)cc2-c2ccccc2)CC1 [Example 7.01.11]	1420
O=C(Cn1nc(-c2ccccc2)cc1-c1ccccc1)N1CCN(c2ccc(Cl)nn2)CC1 [Example 7.01.12]	216
O=C(Cn1nc(-c2ccc(F)cc2)cc1-c1ccc(F)cc1)N1CCN(c2ncccn2)CC1 [Example 7.01.13]	14
COc1cc(N2CCN(C(=O)Cn3nc(-c4ccc(F)cc4)cc3-c3ccc(F)cc3)CC2)ncn1 [Example 7.01.14]	22
O=C(Cn1nc(-c2ccc(F)cc2)cc1-c1ccc(F)cc1)N1CCN(c2ccccn2)CC1 [Example 7.01.15]	30
COc1ccnc(N2CCN(C(=O)Cn3nc(-c4ccc(F)cc4)cc3-c3ccc(F)cc3)CC2)c1 [Example 7.01.16]	32
COc1cccc(-c2cc(C3CCCCC3)n(CC(=O)N3CCN(c4ncccn4)CC3)n2)c1 [Example 7.01.17]	117
COc1cccc(-c2cc(C3CCCCC3)n(CC(=O)N3CCN(c4ccccn4)CC3)n2)c1 [Example 7.01.18]	285
COc1ccc(-c2cc(C(C)C)n(CC(=O)N3CCN(c4ncccn4)CC3)n2)cc1 [Example 7.01.19]	86

SMILES	EC50 [nM]
COc1ccc(-c2cc(C(C)C)n(CC(=O)N3CCN(c4ccccn4)CC3)n2)cc1 [Example 7.01.20]	183
COc1ccc(-c2cc(C(C)C)n(CC(=O)N3CCN(c4cc(C)ccn4)CC3)n2)cc1 [Example 7.01.21]	111
COc1ccc(-c2cc(C(C)C)n(CC(=O)N3CCN(c4cccnn4)CC3)n2)cc1 [Example 7.01.22]	701
COc1ccc(-c2cc(C(C)C)n(CC(=O)N3CCN(c4cc(OC)ncn4)CC3)n2)cc1 [Example 7.01.23]	221
Cc1ccnc(N2CCN(C(=O)Cn3nc(-c4ccc(F)c(C)c4)cc3C(C)C)CC2)c1 [Example 7.01.24]	79
COc1ccnc(N2CCN(C(=O)Cn3nc(-c4ccc(F)c(C)c4)cc3C(C)C)CC2)c1 [Example 7.01.25]	112
Cc1cc(-c2cc(C(C)C)n(CC(=O)N3CCN(c4ccccn4)CC3)n2)ccc1F [Example 7.01.26]	138
COc1cc(N2CCN(C(=O)Cn3nc(-c4ccc(F)c(C)c4)cc3C(C)C)CC2)ncn1 [Example 7.01.27]	64
Cc1cc(-c2cc(C(C)C)n(CC(=O)N3CCN(c4cccnn4)CC3)n2)ccc1F [Example 7.01.29]	158
COc1cnnc(N2CCN(C(=O)Cn3nc(-c4ccc(F)c(C)c4)cc3C(C)C)CC2)c1 [Example 7.01.30]	987
Cc1cc(-c2cc(C(C)C)n(CC(=O)N3CCN(c4ncc(F)cn4)CC3)n2)ccc1F [Example 7.01.31]	208
COc1cnc(N2CCN(C(=O)Cn3nc(-c4ccc(F)c(C)c4)cc3C(C)C)CC2)nc1 [Example 7.01.32]	75
Cc1ccnc(N2CCN(C(=O)Cn3nc(-c4ccc(F)c(C)c4)cc3C3CCCCC3)CC2)c1 [Example 7.01.33]	161
Cc1cc(-c2cc(C3CCCCC3)n(CC(=O)N3CCN(c4ncccn4)CC3)n2)ccc1F [Example 7.01.34]	60
Cc1cc(-c2cc(C3CCCCC3)n(CC(=O)N3CCN(c4ccccn4)CC3)n2)ccc1F [Example 7.01.35]	213
COc1cc(N2CCN(C(=O)Cn3nc(-c4ccc(F)c(C)c4)cc3C3CCCCC3)CC2)ncn1 [Example 7.01.36]	308
COc1ccnc(N2CCN(C(=O)Cn3nc(-c4ccc(F)c(C)c4)cc3C3CCCCC3)CC2)c1 [Example 7.01.37]	298
Cc1cc(-c2cc(C3CCCCC3)n(CC(=O)N3CCN(c4cccnn4)CC3)n2)ccc1F [Example 7.01.38]	100

More lines, now with the values ahead:

EC50 [nM]	SMILES
234	Cc1cc(-c2cc(C3CC3)n(CC(=O)N3CCN(c4ccccn4)CC3)n2)ccc1F [Example 7.01.41]
101	Cc1cc(-c2cc(C3CC3)n(CC(=O)N3CCN(c4ncccn4)CC3)n2)ccc1F [Example 7.01.42]
725	Cc1cc(-c2cc(C3CC3)n(CC(=O)N3CCN(c4cccnn4)CC3)n2)ccc1F [Example 7.01.43]
176	Cc1ccnc(N2CCN(C(=O)Cn3nc(-c4ccc(F)c(C)c4)cc3C3CC3)CC2)c1 [Example 7.01.44]
1010	COc1cnnc(N2CCN(C(=O)Cn3nc(-c4ccc(F)c(C)c4)cc3C3CC3)CC2)c1 [Example 7.01.45]
333	COc1ccnc(N2CCN(C(=O)Cn3nc(-c4ccc(F)c(C)c4)cc3C3CC3)CC2)c1 [Example 7.01.46]
447	COc1cc(N2CCN(C(=O)Cn3nc(-c4ccc(F)c(OC)c4)cc3C(C)C)CC2)ncn1 [Example 7.01.47]
687	COc1cc(-c2cc(C(C)C)n(CC(=O)N3CCN(c4cc(C)ccn4)CC3)n2)ccc1F [Example 7.01.48]
1060	COc1cc(-c2cc(C(C)C)n(CC(=O)N3CCN(c4ccccn4)CC3)n2)ccc1F [Example 7.01.49]
512	COc1cc(-c2cc(C(C)C)n(CC(=O)N3CCN(c4ncc(Br)cn4)CC3)n2)ccc1F [Example 7.01.50]
485	COc1cc(-c2cc(C(C)C)n(CC(=O)N3CCN(c4ncccn4)CC3)n2)ccc1F [Example 7.01.51]
431	COc1ccc(-c2cc(C(C)C)n(CC(=O)N3CCN(c4cc(C)ccn4)CC3)n2)cc1C [Example 7.01.52]
205	COc1ccc(-c2cc(C(C)C)n(CC(=O)N3CCN(c4ncccn4)CC3)n2)cc1C [Example 7.01.54]
501	COc1ccnc(N2CCN(C(=O)Cn3nc(-c4ccc(OC)c(C)c4)cc3C(C)C)CC2)c1 [Example 7.01.55]
393	COc1ccc(-c2cc(C(C)C)n(CC(=O)N3CCN(c4ccccn4)CC3)n2)cc1C [Example 7.01.56]
81	O=C(Cn1nc(-c2ccc(F)cn2)cc1-c1ccccc1)N1CCN(c2ncccn2)CC1 [Example 7.01.57]
211	O=C(Cn1nc(-c2ccc(F)cn2)cc1-c1ccccc1)N1CCN(c2ccccn2)CC1 [Example 7.01.58]
118	O=C(Cn1nc(-c2ccc(F)cn2)cc1-c1ccc(F)cc1)N1CCN(c2ccccn2)CC1 [Example 7.01.59]
1230	O=C(Cn1nc(-c2ccc(F)cn2)cc1-c1ccccc1)N1CCN(c2cccnn2)CC1 [Example 7.01.60]
246	COc1cc(N2CCN(C(=O)Cn3nc(-c4ccc(F)cn4)cc3-c3ccccc3)CC2)ncn1 [Example 7.01.61]
48	O=C(Cn1nc(-c2ccc(F)cn2)cc1-c1ccc(F)cc1)N1CCN(c2ncccn2)CC1 [Example 7.01.62]
94	COc1cc(N2CCN(C(=O)Cn3nc(-c4ccc(F)cn4)cc3-c3ccc(F)cc3)CC2)ncn1 [Example 7.01.63]
